Earlier results as cited in EP1399019B1, “ADJUVANT COMPOSITIONS AND PESTICIDES” (HUNTSMAN PETROCHEMICAL CORPORATION, priority 2001, dated 2002).
Like-named read-outs stand apart in the source and are kept apart here.

CNC(=O)CSP(=S)(OC)OC [Cygon, dimethoate]
time to lose 50 percent of its pest control power (mixed in water of pH 9): 48 min | time to lose 50 percent of its pest control power (pH of 6): 720 min
